From patent US10407445B2, “Hepatitis C virus inhibitors” (ENANTA PHARMACEUTICALS, INC., priority 2013, dated 2019)

What was measured:
Type in all cases: cell-based
HCV GT 3a replicon = test: HCV replicon assay, GT2a chimeric replicon expressing NS5A from GT3a strain S52; conditions: Hepatitis C virus, 72 h, read-out: EC50 3a
Procedure, shortened: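 Stable Huh-7.5 lines carried JFH-1 subgenomic replicons with hRluc-Neo reporter, in which NS5A was swapped for GT3a strain S52 or GT2a strain J6 NS5A. Renilla luciferase was read after 72 h relative to DMSO controls.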

HCV GT 1b replicon = test: HCV replicon assay, stable GT 1b replicon (Renilla luciferase); conditions: Hepatitis C virus, GT1B, 72 h
Procedure, shortened: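 Stable Huh-7.5-based GT1b replicon (Con1-derived) carrying hRluc-Neo, 4000 cells/well seeded onto a sixteen-point half-log compound series in G418-free, phenol red-free medium. After 72 h, Renilla luciferase is read relative to DMSO controls; CC50 in the same cells by CellTiter-Glo.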

[1] = test system: GT1a replicon encoding NS5A mutation L31V; test: Transient replication assay, GT1a replicon with NS5A mutation L31V; conditions: Hepatitis C virus, read-out: EC50 1a L31V

SMILES | EC50 (HCV GT 3a replicon) [nM] | EC50 (HCV GT 1b replicon) [nM] | EC50 [1] [nM]
COC(=O)N[C@H](C(=O)N1CCC[C@H]1c1nc2c([nH]1)-c1ccc(-c3ccc4c(ccc5nc([C@@H]6C[C@@]7(CCCOC7)CN6C(=O)[C@@H](NC(=O)OC)C(C)C)[nH]c54)c3)cc1OC2)C(C)C [Compound 25] | 0.6 | 0.068 | 0.6
COC(=O)N[C@H](C(=O)N1C[C@]2(CCCOC2)C[C@H]1c1nc2ccc3cc(-c4ccc5c(ccc6nc([C@@H]7C[C@H]8C[C@H]8N7C(=O)[C@@H](NC(=O)OC)C(C)C)[nH]c65)c4)ccc3c2[nH]1)C(C)C [Compound 6] | 0.08 | 0.012 | 0.2
COC(=O)N[C@H](C(=O)N1CCC[C@H]1c1nc2ccc(C#Cc3ccc4c(ccc5nc([C@@H]6CCCN6C(=O)[C@@H](NC(=O)OC)C(C)C)[nH]c54)c3)cc2[nH]1)C(C)C [Example 103] | 0.3 | 0.004 | 29
COC(=O)N[C@H](C(=O)N1C[C@]2(CCCCO2)C[C@H]1c1nc(-c2ccc(-c3ccc4c(ccc5nc([C@@H]6CCCN6C(=O)[C@@H](NC(=O)OC)C(C)C)[nH]c54)c3)cc2)c[nH]1)C(C)C [Example 2] | 1 | 0.007 | 0.3
COC(=O)N[C@H](C(=O)N1C[C@]2(CCCOC2)C[C@H]1c1ncc(-c2ccc(-c3ccc4c(ccc5nc([C@@H]6CC7(CC7)CN6C(=O)[C@@H](NC(=O)OC)C(C)C)[nH]c54)c3)cc2)[nH]1)C(C)C [Compound 28] | 0.5 | 0.011 | 0.3
COC(=O)N[C@H](C(=O)N1C[C@@]2(CCCCO2)C[C@H]1c1nc(-c2ccc(-c3ccc4c(ccc5nc([C@@H]6CCCN6C(=O)[C@@H](NC(=O)OC)C(C)C)[nH]c54)c3)cc2)c[nH]1)C(C)C [Example 3] | 156 | 0.04 | 44
COC(=O)N[C@H](C(=O)N1C[C@]2(CCCOC2)C[C@H]1c1ncc(-c2ccc3c(ccc4cc(-c5cnc([C@@H]6C[C@@H]7CCCC[C@@H]7N6C(=O)[C@@H](NC(=O)OC)C(C)C)[nH]5)ccc43)c2)[nH]1)C(C)C [Compound 17] | 6 | 0.013 | 0.3
COC(=O)N[C@H](C(=O)N1C[C@]2(CCCOC2)C[C@H]1c1nc2ccc3cc(-c4ccc5c(ccc6nc([C@@H]7C[C@@]8(CCCOC8)CN7C(=O)[C@@H](NC(=O)OC)C(C)C)[nH]c65)c4)ccc3c2[nH]1)C(C)C [Compound 31] | 0.1 | 0.058 | 0.03
COC(=O)N[C@H](C(=O)N1CCC[C@H]1c1nc2ccc3cc(-c4ccc5c(ccc6nc([C@@H]7CCCN7C(=O)[C@@H](NC(=O)OC)C(C)C)[nH]c65)c4)ccc3c2[nH]1)C(C)C [Example 101] | 0.05 | 0.021 | 6
COC(=O)N[C@H](C(=O)N1C[C@]2(CCCOC2)C[C@H]1c1ncc(-c2ccc(-c3ccc4c(c3)CCCc3nc([C@@H]5C[C@@H]6CCCC[C@@H]6N5C(=O)[C@@H](NC(=O)OC)C(C)C)[nH]c3-4)cc2)[nH]1)C(C)C [Compound 40] | 44 | 0.008 | 1
COC(=O)N[C@H](C(=O)N1C[C@@]2(CCOC2)C[C@H]1c1ncc(-c2ccc(-c3ccc4c(ccc5nc([C@@H]6C[C@]7(CCOC7)CN6C(=O)[C@@H](NC(=O)OC)C(C)C)[nH]c54)c3)cc2)[nH]1)C(C)C [Compound 49] | 5 | 0.009 | 5
COC(=O)N[C@H](C(=O)N1C[C@@]2(CCCOC2)C[C@H]1c1ncc(-c2ccc(-c3ccc4c(ccc5nc([C@@H]6CCCN6C(=O)[C@@H](NC(=O)OC)C(C)C)[nH]c54)c3)cc2)[nH]1)C(C)C [Compound 27] | 297 | 0.022 | 0.1
COC(=O)N[C@H](C(=O)N1CCC[C@H]1c1ncc(-c2ccc(-c3ccc4c(ccc5nc([C@@H]6C[C@@]7(CCCOC7)CN6C(=O)[C@@H](NC(=O)OC)C(C)C)[nH]c54)c3)cc2)[nH]1)C(C)C [Compound 44] | 0.06 | 0.016 | 0.6
